The series is described as follows: Solution stability in buffer solutions. Particulars: buffer solutions pH about 1.2 to about 10.0, about 60° C., 2 days. The format is physicochemical. How it is done:
The stability of Compound I HCl Form I in buffer solutions over a pH range of about 1.2 to about 10.0 was also evaluated. These solutions were stored at about 60° C., and assayed for pH and % remaining at 2 days.

Counter-ions that a name gives are not always drawn.

This note sets out measurements from patent US11713309B2, “Solid forms of Cerdulatinib” (Alexion Pharmaceuticals, Inc., priority 2018, dated 2023).

Consider `CCS(=O)(=O)N1CCN(c2ccc(Nc3ncc(C(N)=O)c(NC4CC4)n3)cc2)CC1` [Compound I HCl Form I, 4-(cyclopropylamino)-2-(4-(4-(ethylsulfonyl)piperazin-1-yl)phenylamino)pyrimidine-5-carboxamide], for which the “pH at which most stable in solution (% remaining)” value is “about 4.5”.
